Assay results taken from ChEMBL document CHEMBL1201862, “PubChem BioAssay data set” (2004).
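Grown in 96-well plates, cells were treated for 48 hours with each compound at five concentrations. Insufficient inhibition: endpoint recorded as highest concentration tested. GI50: concentration for 50% inhibition of growth.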 The source made the active and inactive calls. Cut-off read from the data, not from the text of the source: active = GI50 up to about 1.1 µM and inactive = higher. Residues, ends and D or L forms follow the SMILES beside them. Groups on a side chain read outwards from the residue. *: point of attachment. Cbz = O=C(OCc1ccccc1)*; Boc = CC(C)(C)OC(=O)*

Experiments:
Test in all cases: NCI-60 cell line screen, 48 h
A549 = tested on: A549
BT-549 = tested on: BT-549
DU-145 = tested on: DU-145
HL-60 = tested on: HL-60
K562 = tested on: K562
M14 = tested on: M14
MCF7 = tested on: MCF7
MDA-MB-435 = tested on: MDA-MB-435
MOLT-4 = tested on: MOLT-4
NCI-H23 = tested on: NCI-H23
SK-MEL-28 = tested on: SK-MEL-28
SK-MEL-5 = tested on: SK-MEL-5
SN12C = tested on: SN12C
SR = tested on: SR
TK-10 = tested on: TK-10
U-251 = tested on: U-251
UACC-257 = tested on: UACC-257
EKVX = tested on: EKVX
SF-295 = tested on: SF-295
HOP-92 = tested on: HOP-92

Measured: GI50

CC(C)(C)OC(=O)NC(CCCCNC(=O)CNC(=O)OCc1ccccc1)C(=O)NC(CCCCNC(=O)CNC(=O)OCc1ccccc1)C(=O)NC(CCCCNC(=O)CNC(=O)OCc1ccccc1)C(=O)NC(CCCCNC(=O)CNC(=O)OCc1ccccc1)C(=O)O (stereo not given) (Boc-K([Gly-Cbz])K([Gly-Cbz])K([Gly-Cbz])K([Gly-Cbz])-OH; configuration not given here)
inactive: A549 > 100 µM | BT-549 > 100 µM | DU-145 > 100 µM | HL-60 > 100 µM | K562 > 100 µM | M14 > 100 µM | MCF7 > 100 µM | MDA-MB-435 > 10 µM | MOLT-4 > 100 µM | NCI-H23 > 100 µM | SK-MEL-28 > 100 µM | SK-MEL-5 > 100 µM | SN12C > 100 µM | SR > 100 µM | TK-10 > 100 µM | U-251 > 100 µM | UACC-257 > 100 µM

N=C1N(S(=O)(=O)c2ccccc2)[C@@H](Cc2ccccc2)[C@H](c2ccccc2)C1(c1ccccc1)c1ccccc1
inactive: A549 > 100 µM | BT-549 > 100 µM | DU-145 > 100 µM | EKVX 37.2 µM | HL-60 4.12 µM | K562 71.1 µM | M14 > 100 µM | MCF7 > 100 µM | MDA-MB-435 > 100 µM | MOLT-4 16.8 µM | NCI-H23 41.4 µM | SF-295 > 100 µM | SK-MEL-28 > 100 µM | SK-MEL-5 23.6 µM | SN12C > 100 µM | SR 41.3 µM | TK-10 > 100 µM | U-251 64.1 µM | UACC-257 35.6 µM

C=C(C)CN(CC#N)CC(=C)C
inactive: A549 > 100 µM | BT-549 > 100 µM | DU-145 > 100 µM | EKVX > 100 µM | HL-60 > 100 µM | K562 > 100 µM | M14 > 100 µM | MCF7 > 100 µM | MDA-MB-435 > 100 µM | MOLT-4 > 100 µM | NCI-H23 > 100 µM | SF-295 > 100 µM | SK-MEL-28 > 100 µM | SK-MEL-5 > 100 µM | SN12C > 100 µM | SR > 100 µM | TK-10 > 100 µM | U-251 > 100 µM | UACC-257 > 100 µM

COC(=O)c1cccc(COc2ccc([N+](=O)[O-])cc2Cl)c1
inactive: A549 42.5 µM | BT-549 > 100 µM | DU-145 > 100 µM | EKVX 37.4 µM | HOP-92 44.5 µM | K562 72.4 µM | M14 > 100 µM | MCF7 > 100 µM | MDA-MB-435 > 100 µM | MOLT-4 > 100 µM | NCI-H23 > 100 µM | SF-295 > 100 µM | SK-MEL-28 > 100 µM | SK-MEL-5 51.1 µM | SN12C 49 µM | SR > 100 µM | TK-10 > 100 µM | U-251 83.2 µM | UACC-257 > 100 µM

O=CC(NC(=O)N(CCCl)N=O)C(O)C(O)C(O)CO (stereo not given)
inactive: A549 753 µM | BT-549 499 µM | DU-145 553 µM | EKVX > 1250 µM | HL-60 287 µM | K562 575 µM | M14 748 µM | MCF7 948 µM | MDA-MB-435 774 µM | MOLT-4 159 µM | NCI-H23 993 µM | SF-295 81.7 µM | SK-MEL-28 817 µM | SK-MEL-5 425 µM | SN12C 902 µM | SR 78.7 µM | TK-10 > 1250 µM | U-251 179 µM | UACC-257 1050 µM

COc1c(N2CCCCC2)c2c(=O)c3ccccc3oc2c2c3ccccc3n(C)c12
inactive: A549 > 100 µM | BT-549 98.6 µM | DU-145 > 100 µM | EKVX > 100 µM | HL-60 57.3 µM | HOP-92 > 100 µM | K562 58.2 µM | M14 > 100 µM | MCF7 29.7 µM | MDA-MB-435 > 100 µM | MOLT-4 54.8 µM | NCI-H23 > 100 µM | SF-295 > 100 µM | SK-MEL-28 > 100 µM | SK-MEL-5 > 100 µM | SN12C 47.6 µM | TK-10 > 100 µM | U-251 > 100 µM | UACC-257 > 100 µM

CC(C)(C)/C(=N\Nc1nc2ccccc2[nH]1)c1ccccn1
inactive: A549 > 100 µM | BT-549 > 100 µM | DU-145 95.9 µM | HOP-92 24.9 µM | K562 99.8 µM | M14 61 µM | MCF7 24.9 µM | MDA-MB-435 > 100 µM | MOLT-4 59.6 µM | NCI-H23 82.8 µM | SK-MEL-28 > 100 µM | SK-MEL-5 87.9 µM | SN12C > 100 µM | SR > 100 µM | TK-10 24.7 µM | U-251 > 100 µM | UACC-257 > 100 µM

S=C(/N=c1\sc(NCc2ccccc2)nc2sc3c(c12)CCN(N1CCc2c(sc4nc(NCc5ccccc5)s/c(=N\C(=S)NCc5ccccc5)c24)C1)C3)NCc1ccccc1
inactive: A549 27.4 µM | BT-549 62.2 µM | DU-145 45 µM | EKVX 19.9 µM | HL-60 25.4 µM | HOP-92 39.4 µM | K562 17.4 µM | M14 42.9 µM | MCF7 15.8 µM | MDA-MB-435 42.9 µM | MOLT-4 14.3 µM | NCI-H23 24.6 µM | SF-295 59.3 µM | SK-MEL-28 63.4 µM | SK-MEL-5 87.5 µM | SN12C 16.2 µM | TK-10 48.9 µM | U-251 10.5 µM | UACC-257 21.5 µM

CCc1cc2c(oc3cc(C)ccc32)c(=O)n1C
inactive: A549 > 10 µM | BT-549 > 10 µM | DU-145 > 10 µM | EKVX > 10 µM | HL-60 > 10 µM | HOP-92 > 10 µM | K562 > 10 µM | M14 > 10 µM | MCF7 > 10 µM | MDA-MB-435 > 10 µM | MOLT-4 > 10 µM | NCI-H23 > 10 µM | SF-295 > 10 µM | SN12C > 10 µM | SR > 10 µM | TK-10 > 10 µM | U-251 > 10 µM | UACC-257 > 10 µM

CC(=O)Nc1ccc2c(c1)[nH]c(=O)c1cc(Cl)ccc12
inactive: A549 5.61 µM | BT-549 25.8 µM | DU-145 19.9 µM | EKVX 26.2 µM | HL-60 21.1 µM | K562 34.1 µM | M14 36.5 µM | MCF7 4.48 µM | MDA-MB-435 23.4 µM | MOLT-4 2.23 µM | NCI-H23 17.1 µM | SF-295 35.1 µM | SK-MEL-28 38.8 µM | SK-MEL-5 15.9 µM | SN12C 43.5 µM | SR 3.2 µM | TK-10 15.2 µM | U-251 34.3 µM | UACC-257 20.3 µM
